ChEMBL document CHEMBL5653631, “A Potent and Selective ULK1 Inhibitor Suppresses Autophagy and Sensitizes Cancer Cells to Nutrient Stress” (iScience, 2018)
Blank lines part the entries; values can stand above or below the molecule they belong to.

Assays:
[1] = target: T1, Serine/threonine-protein kinase ULK2 (Homo sapiens) (UniProt Q8IYT8); assay: Inhibition of human recombinant ULK2 at 500 nM in presence of ATP by radiometric assay relative to control
T1 sequence (whole entry): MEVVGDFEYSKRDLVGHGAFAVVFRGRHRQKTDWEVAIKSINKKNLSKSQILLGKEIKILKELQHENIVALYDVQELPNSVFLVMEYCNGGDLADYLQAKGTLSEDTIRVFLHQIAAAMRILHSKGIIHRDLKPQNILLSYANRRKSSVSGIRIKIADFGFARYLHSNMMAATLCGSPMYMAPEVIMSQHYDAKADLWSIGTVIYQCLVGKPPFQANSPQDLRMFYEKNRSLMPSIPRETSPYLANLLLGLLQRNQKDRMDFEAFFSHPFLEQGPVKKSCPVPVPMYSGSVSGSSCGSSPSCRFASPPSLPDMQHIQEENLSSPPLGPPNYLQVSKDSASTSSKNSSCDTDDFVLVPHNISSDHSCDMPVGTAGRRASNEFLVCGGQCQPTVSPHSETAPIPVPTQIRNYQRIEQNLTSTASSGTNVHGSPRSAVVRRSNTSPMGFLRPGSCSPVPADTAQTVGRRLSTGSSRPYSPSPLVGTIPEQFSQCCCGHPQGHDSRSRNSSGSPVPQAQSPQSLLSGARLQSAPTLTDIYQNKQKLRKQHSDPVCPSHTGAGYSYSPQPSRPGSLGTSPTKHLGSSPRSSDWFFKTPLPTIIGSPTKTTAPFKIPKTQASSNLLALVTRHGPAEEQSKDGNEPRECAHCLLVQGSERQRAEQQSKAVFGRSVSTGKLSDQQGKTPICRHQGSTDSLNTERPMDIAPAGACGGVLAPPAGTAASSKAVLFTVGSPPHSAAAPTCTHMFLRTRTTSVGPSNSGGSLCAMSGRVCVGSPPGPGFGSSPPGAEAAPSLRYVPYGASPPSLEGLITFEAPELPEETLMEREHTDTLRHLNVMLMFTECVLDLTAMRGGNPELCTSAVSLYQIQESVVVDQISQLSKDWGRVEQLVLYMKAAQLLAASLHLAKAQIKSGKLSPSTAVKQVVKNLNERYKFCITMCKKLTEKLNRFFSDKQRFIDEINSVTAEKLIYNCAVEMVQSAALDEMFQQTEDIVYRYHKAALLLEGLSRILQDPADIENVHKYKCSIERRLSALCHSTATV

[2] = target: T2, Ephrin type-A receptor 3 (Homo sapiens) (UniProt P29320); assay: Inhibition of human recombinant EphA3 at 500 nM related to control ULK1
T2 sequence (whole entry): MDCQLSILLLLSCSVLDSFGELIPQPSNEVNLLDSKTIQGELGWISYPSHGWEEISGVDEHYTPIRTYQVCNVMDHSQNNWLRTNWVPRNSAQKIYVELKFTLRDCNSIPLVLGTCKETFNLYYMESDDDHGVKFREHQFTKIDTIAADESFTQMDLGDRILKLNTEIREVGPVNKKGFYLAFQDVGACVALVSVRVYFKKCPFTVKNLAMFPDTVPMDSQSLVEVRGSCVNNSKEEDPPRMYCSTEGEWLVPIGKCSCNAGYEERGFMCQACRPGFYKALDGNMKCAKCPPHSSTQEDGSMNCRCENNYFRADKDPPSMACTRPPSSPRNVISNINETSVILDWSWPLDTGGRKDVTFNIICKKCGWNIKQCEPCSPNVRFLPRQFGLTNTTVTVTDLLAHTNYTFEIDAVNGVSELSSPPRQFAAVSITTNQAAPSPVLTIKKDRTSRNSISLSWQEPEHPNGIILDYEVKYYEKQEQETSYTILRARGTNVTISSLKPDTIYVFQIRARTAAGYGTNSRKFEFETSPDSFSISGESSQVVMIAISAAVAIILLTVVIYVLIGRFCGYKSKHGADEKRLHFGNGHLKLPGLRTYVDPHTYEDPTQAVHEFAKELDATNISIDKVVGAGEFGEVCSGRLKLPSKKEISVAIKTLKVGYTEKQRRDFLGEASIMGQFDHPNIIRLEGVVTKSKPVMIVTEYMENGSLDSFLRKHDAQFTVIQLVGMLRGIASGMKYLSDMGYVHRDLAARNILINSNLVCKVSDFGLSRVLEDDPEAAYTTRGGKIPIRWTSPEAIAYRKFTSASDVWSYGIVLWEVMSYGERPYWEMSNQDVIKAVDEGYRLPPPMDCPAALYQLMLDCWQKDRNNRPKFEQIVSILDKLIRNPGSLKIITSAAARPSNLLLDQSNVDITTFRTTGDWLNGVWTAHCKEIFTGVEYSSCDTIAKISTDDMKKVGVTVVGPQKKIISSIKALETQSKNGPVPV

[3] = target: Serine/threonine-protein kinase 32B (Homo sapiens) (UniProt Q9NY57); assay: Inhibition of human recombinant YANK2 at 500 nM related to control ULK1
Sequence of Serine/threonine-protein kinase 32B (Homo sapiens) (Q9NY57 whole entry): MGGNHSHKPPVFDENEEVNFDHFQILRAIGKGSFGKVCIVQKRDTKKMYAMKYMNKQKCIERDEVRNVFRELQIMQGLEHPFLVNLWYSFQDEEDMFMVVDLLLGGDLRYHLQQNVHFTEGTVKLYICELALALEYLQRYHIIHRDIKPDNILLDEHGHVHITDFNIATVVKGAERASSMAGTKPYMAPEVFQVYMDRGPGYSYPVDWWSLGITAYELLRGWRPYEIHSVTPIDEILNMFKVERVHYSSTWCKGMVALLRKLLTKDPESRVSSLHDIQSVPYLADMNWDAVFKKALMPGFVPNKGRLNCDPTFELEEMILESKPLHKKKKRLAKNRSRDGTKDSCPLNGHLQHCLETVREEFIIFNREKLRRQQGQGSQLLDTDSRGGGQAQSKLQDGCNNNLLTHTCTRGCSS

[4] = target: Protein kinase C iota type (Homo sapiens) (UniProt P41743); assay: Inhibition of human recombinant PKCi at 15 nM in presence of ATP by radiometric assay relative to control
Sequence of Protein kinase C iota type (Homo sapiens) (P41743 whole entry, looked up): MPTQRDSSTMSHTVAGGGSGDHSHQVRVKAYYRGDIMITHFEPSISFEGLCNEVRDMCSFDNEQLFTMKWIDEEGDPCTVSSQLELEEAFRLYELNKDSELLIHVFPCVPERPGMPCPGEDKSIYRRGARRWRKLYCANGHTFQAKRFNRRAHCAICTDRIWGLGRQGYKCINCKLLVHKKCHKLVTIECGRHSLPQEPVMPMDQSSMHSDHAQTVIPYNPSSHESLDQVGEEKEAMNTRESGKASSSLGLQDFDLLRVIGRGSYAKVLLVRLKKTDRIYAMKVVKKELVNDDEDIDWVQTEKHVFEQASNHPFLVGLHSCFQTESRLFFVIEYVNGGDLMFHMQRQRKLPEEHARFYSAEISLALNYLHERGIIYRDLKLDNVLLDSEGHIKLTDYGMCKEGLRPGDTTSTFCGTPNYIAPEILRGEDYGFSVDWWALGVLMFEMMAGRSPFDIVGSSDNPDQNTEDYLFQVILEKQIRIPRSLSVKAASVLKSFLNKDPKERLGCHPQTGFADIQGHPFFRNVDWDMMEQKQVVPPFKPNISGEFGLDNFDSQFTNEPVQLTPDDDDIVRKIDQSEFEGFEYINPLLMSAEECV

[5] = target: T2, Ephrin type-A receptor 3 (Homo sapiens); assay: Inhibition of human recombinant EphA3 at 40 nM related to control ULK1

inhibition [1]: 48%
fold change (FC) [2]: 0.15
fold change (FC) [3]: 0.03
Structure (SMILES): CNC(=O)c1ccccc1Oc1nc(Nc2cc(OC)c(OC)c(OC)c2)ncc1Br

inhibition [4]: 4%
Structure (SMILES): CC(C)[C@H](NC(=O)c1cc(-c2cnn3cc(-c4ccc(OCCN5CCCCC5)cc4)cnc23)cs1)C(F)(F)F

fold change (FC) [5]: 0.21
Structure (SMILES): O=C(N[C@@H](C1CC1)C(F)(F)F)c1cc(-c2cnn3cc(-c4ccc(F)cc4)cnc23)cs1
